Laboratory results taken from patent US7964598B2 (The J. David Gladstone Institutes, priority 1995, dated 2011).
Several values for one entry are separate records, joined by “and”; a condition that tells them apart may be missing. Identical values can stand only once. Entries after “also recorded” stand apart in the source; their conditions may differ.

Tests used:
[1] = tested on: Neuro-2a cells; experiment: Aβ-induced lysosomal leakage (cytosolic β-hexosaminidase); format: cell-based, mouse
Method: The cytosolic fraction was obtained by ultracentrifugation, and the cytosolic β-hexosaminidase activity was measured.
Quantitation of the lysosomal enzyme β-hexosaminidase activity in the cytosol indicates lysosomal leakage. […] After incubation the cells were washed and cytosolic fractions were isolated as described in Materials and Methods. The enzymatic activity of β-hexosaminidase was assayed in 20 μg of cytosolic protein for each sample.
Lysosomal leakage was quantitated by assaying cytosolic 0-hexosaminidase activity. […] Conditioned media were prepared as described above. Apoptosis was quantitated by measuring DNA fragmentation.

[2] = tested on: YFP-apoE4-CFP cells; experiment: MTT cytotoxicity assay; format: cell-based, mouse; settings: 5-10 μM
From the text: (§1) Since the emission spectrum of CFP (460-520 nm) overlaps with the excitation spectrum of YFP (480-520 nm), FLEXstation (Molecular Devices) can be used to measure FRET in living cells expressing YFP-apoE3-CFP or YFP-apoE4-CFP in a high throughput manner. […] Thus, the ratio of FRET to CFP emission in cells expressing YFP-apoE4-CFP is much higher than that in those expressing YFP-apoE3-CFP (FIG. 31). […] Since the FLEXstation can read FRET in both cells and the culture media treated without or with various small molecules, this assay allows one to know whether a small molecule affects apoE4 domain interaction only in the medium (“medium FRET”) or also inside the cell (“intracellular FRET”). In addition, after measurement of the intracellular FRET, the cells can be incubated further with MTT to determine the cytotoxicity of the compound. Thus, the cell-based FRET assay can simultaneously provide three sets of data-intracellular FRET, medium FRET, and cytotoxicity.

[3] = biological target: T1, YFP-apoE4-CFP (Homo sapiens, UniProt P02649, C130R); experiment: Cell-based FRET assay, YFP-apoE4-CFP; settings: 5-20 μM; for ratio of FRET to CFP emission in the cells expressing YFP-apoE4-CFP: intracellular; for ratio of FRET to CFP emission in media of YFP-apoE4-CFP cells: medium
T1 construct: vector signal peptide (pFLAG-CMV3) (N); FLAG (N); expressed in transfected cells
From the text: (§2) Xu et al. (2004) J. Biol. Chem. 279:25511-25516. FRET—the non-radioactive transfer of photon energy from an excited fluorophore (donor) to another fluorophore (acceptor)—occurs only when the donor and acceptor are in close proximity (<100 Å). Thus, this approach can be used to measure nanometer scale distances.
(§3) Xu et al. (2004) J. Biol. Chem. 279:25511-25516. The constructs are depicted schematically in FIG. 29.
as §1
(§4) Quantifying FRET in Transfected Neuro-2a Cells—Stably transfected Neuro-2a cells expressing YFP-apoE3-CFP or YFP-apoE4-CFP at similar levels were selected by fluorescence activated cell sorter (FACS). YFP and CFP images of transfected cells were acquired with the Meta Detector, and their fluorescence intensities were analyzed with the mounted computer. The FRET signal was calculated as the ratio of YFP to CFP fluorescence intensity under CFP excitation. For each YFP-apoE-CFP construct, the FRET signal was measured in at least 12 cells from different fields.
(§5) Quantifying FRET in the Culture Medium—Neuro-2a cells stably expressing YFP-apoE3-CFP or YFP-apoE4-CFP and wildtype cells were grown in T175 flasks to 90% confluence and incubated with serum-free minimum essential medium containing N2 supplement for 24 h. The conditioned medium (20 ml/flask) was concentrated about 20-fold with Centriplus-YM-10 concentrators (Amicon, Bedford, Mass.), dialyzed against PBS, illuminated at the CFP excitation wavelength (430 nm), and scanned for emission spectrum. The FRET signal was calculated as the ratio of emission at 525 nm (YFP) to that at 475 nm (CFP). Conditioned medium from cells expressing apoE3-CFP or apoE4-CFP was used to determine baseline fluorescence in the absence of FRET.

[4] = tested on: Neuro-2a cells; experiment: Aβ-induced apoptosis (DNA fragmentation assay); format: cell-based, mouse
Method: DNA Fragmentation Assay—DNA fragmentation of apoptotic cells was determined with Cell Death Detection ELISA kits (Roche, Indianapolis, Ind.).
FIG. 38. […] Control cells were not treated with Aβ1-42. Apoptotic cell death was measured with a DNA fragmentation assay. Values are the mean±S.D. of three separate experiments.
FIGS. 39A and 39B. […] Lysosomal leakage was quantitated by assaying cytosolic 0-hexosaminidase activity. […] Conditioned media were prepared as described above. Apoptosis was quantitated by measuring DNA fragmentation.

[5] = biological target: T2, YFP-apoE3-CFP (Homo sapiens, UniProt P02649); experiment: Cell-based FRET assay, YFP-apoE3-CFP; settings: for ratio of FRET to CFP emission in cells expressing YFP-apoE3-CFP: intracellular; for ratio of FRET to CFP emission in media of YFP-apoE3-CFP cells: medium
T2 construct: vector signal peptide (pFLAG-CMV3) (N); FLAG (N); expressed in transfected cells
From the text: as §2, §3, §1, §4, §5

[6] = biological target: T3, apoE4 (Homo sapiens, UniProt P02649, C130R); experiment: Emulsion binding assay for domain interaction, apoE4
T3 construct: made in house
Method: (§6) Preparation of emulsion particles. Triolein (160 mg) and L-alpha-Phosphatidylcholine (40 mg) are combined and dried under nitrogen. After the addition of 8 mls of buffer (10 mM Tris, 100 mM KCl, 1 mM EDTA, pH 8.0), the mixture is sonicated in a water bath to obtain a heterogeneous mix of emulsion particles. The particles are harvested by ultracentrifugation (TLA 100.2 rotor, 30,000 rpm for 30 minutes) and the subsequent lipid cake is removed by tube slicing and resuspended in 100 μt 20 mM Phosphate Buffer (PB). Triolein and phospholipid content are measured and total emulsion particle concentration is determined.
(§7) Radiolabelling Freshly denatured and renatured Apolipoprotein E3 and E4 are radiolabelled using Bolton-Hunter Reagent [^125I] (ICN). Specific Activity is determined using Lowry method and Gamma 8000 counter.
(§8) Binding Affinity Assay. […] In glass tubes, 25 μg of protein (with iodinated tracer) was reduced with 1% β-mercaptoethanol. Two hundred and fifty μg of emulsion particles and 2.5 μl of compound (10 mM stock) were added and the final mixture was brought up to 250 μl with 20 mM phosphate buffer (PB). The reaction mixture was then incubated in a 37° C. water bath for 2 hours before being transferred to 1.5 ml ultracentrifuge tubes. Finally, 50 μl of 60% sucrose was mixed with the sample and 400 μl 20 mM PB was carefully layered on top. Using a TLA 100.2 rotor, the tube was spun at 30,000 rpm for 30 minutes and subsequently cut to separate the floating emulsion particle layer from the free protein at the bottom of the tube. These fractions were then combined with the respective half of the actual tube and counted using a Gamma-8000. […] Protein-only assays yielded 94.5-96.6% of protein accumulated in the bottom portion of the tube. In emulsion particle-only assays, 94% of emulsion particles accumulated in the top portion of the tube.
(§9) Preparation of Emulsion Particles and VLDL Binding Affinity Assay. VLDL-like emulsion particles were prepared using triolein (160 mg) and L-alpha-phosphatidylcholine (40 mg), as described. Dong and Weisgraber (1996) supra; and Dong et al. (1994) J. Biol. Chem. 269:22358-22365.

[7] = biological target: T4, apoE3 (Homo sapiens, UniProt P02649); experiment: Emulsion binding assay, apoE3; settings: follow-up assay
T4 construct: made in house
Method: as §6, §7, §8, §9

[8] = tested on: B103 cells; experiment: Toxicity to B103 cells; format: cell-based, rat; settings: at the micromole level
[9] = Water solubility; format: physicochemical
[10] = tested on: apoE3; experiment: Aβ production assay, B103-APP cells incubated with apoE3; format: cell-based, rat; settings: FIG. 22
Method: Aβ production assay. Stable neuroblastoma B103 cell lines transfected with a wildtype hAPP cDNA construct (B 103-APP) were selected by growing them in Dulbecco's modified Eagle's medium (DMEM) containing 10% fetal calf serum (FBS) and 400 μg/ml G418. A cell line expressing APP at similar levels in mouse brains has been identified by RNase protection assay (RPA) and was used in the studies described below. To determine Aβ production, B103-APP cells were incubated with serum-free minimal essential medium (MEM) containing N2 supplements with or without apoE isoforms for 24 h at 37° C. After incubation, 50 μl of medium was collected and assayed for Aβ levels with an ELISA method. The cells were lysed, and cellular proteins were determined by the Lowry method. AP production was normalized to cellular protein.
Cell Culture. Rat neuroblastoma B103 cells stably expressing human wildtype APP (hAPP695wt) (Xu et al. ((1999) Proc. Natl. Acad. Sci. USA 96:7547-7552; Esposito, et al. (2004) J. Neurochem. 91:1260-1274) were generated in Dr. Lennart Mucke's laboratory at the Gladstone Institute of Neurological Disease and maintained in Dulbecco's modified Eagle's medium (DMEM) (GIBCO, Grand Island, N.Y.) containing 400 μg/ml G418, 10% fetal bovine serum, and 5% horse serum at 37° C. Twenty-four hours after plating into 48-well plates (1×10^5 cells per well), cells were washed twice with serum-free DMEM and cultured for another 24 h in DMEM containing 1% N-2 supplement (GIBCO) to induce differentiation. The cells were treated with either β-VLDL (25 μg/ml cholesterol), recombinant human apoE isoform-enriched β-VLDL (7.5 μg/ml apoE and 25 μg/ml cholesterol), or recombinant human apoE (7.5 μg/ml apoE) in fresh DMEM containing 1% N-2 supplement for an additional 24 h. In some experiments, RAP (25 nM or 1 μM) was added to the cells 1 h before apoE treatment.
Aβ Assay. Aβ secreted into the medium was detected with a sandwich enzyme-linked immunosorbent assay (ELISA), using mAb 266 as a capturing antibody and 3D6 as a detecting antibody, as described. Johnson-Wood et al. ((1997) Proc. Natl. Acad. Sci. USA 94:1550-1555). Aβ was quantified from a standard curve (Aβ42; Bachem, Torrance, Calif.) and normalized by total cellular protein.

[11] = follow-up assay, second E4 control
[12] = initial assay, 2.5 μl of compound (10 mM stock) in 250 μl, 37° C. 2 hours, listed as 3-butyl-1-ethyl-5-(2-(3-sulfobutyl-benzo(1,3)oxazo, potassium salt))

T3 sequence (P02649 19-317 C130R): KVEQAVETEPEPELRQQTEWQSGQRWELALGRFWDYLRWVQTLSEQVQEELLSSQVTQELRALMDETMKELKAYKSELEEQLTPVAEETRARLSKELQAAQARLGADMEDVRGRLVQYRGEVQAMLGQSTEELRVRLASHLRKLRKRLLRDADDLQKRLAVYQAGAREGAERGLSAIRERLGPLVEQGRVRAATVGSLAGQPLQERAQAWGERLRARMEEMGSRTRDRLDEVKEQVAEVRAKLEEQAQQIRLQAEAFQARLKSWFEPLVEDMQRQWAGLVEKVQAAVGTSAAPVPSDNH
T1 sequence (P02649 19-317 C130R): as above
T2 sequence (P02649 19-317): as the sequence (P02649 19-317 C130R) above, with R112C counted along it
T4 sequence (P02649 19-317): as the sequence (P02649 19-317 C130R) above, with R112C counted along it

| ratio of FRET to CFP emission in the cells expressing YFP-apoE4-CFP [3] | ratio of FRET to CFP emission in media of YFP-apoE4-CFP cells [3] | SMILES | lysosomal leakage, cells with medium alone or medium containing apoE3 plus Aβ1-42 [1] | apoE4 potentiation of Aβ-induced lysosomal leakage ([1]; 5 μM, apoE4 conditioned medium, Aβ1-42 20 μM) | cytotoxicity (MTT assay) [2] | apoptosis, cells with medium alone or medium containing apoE3 plus Aβ1-42 [4] | apoE4 potentiation of Aβ-induced apoptosis ([4]; apoE4 conditioned medium, Aβ1-42) | ratio of FRET to CFP emission in cells expressing YFP-apoE3-CFP [5] | ratio of FRET to CFP emission in media of YFP-apoE3-CFP cells [5] | E4 + cpd n = 3, % bound ([6]; follow-up assay) [%] | E4 + cpd n = 3, % free ([6]; follow-up assay) [%] | E4 control, % bound [6, 11] [%] | E4 control, % free [6, 11] [%] | E4 + cpd, % bound [6, 12] | E4 + cpd, % free [6, 12] | E3 + compound, % bound [7] [%] | E3 + compound, % free [7] [%] | toxicity to B103 cells [8] | water solubility [9] | effect on apoE3 (Aβ production) [10] |
| --- | --- | --- | --- | --- | --- | --- | --- | --- | --- | --- | --- | --- | --- | --- | --- | --- | --- | --- | --- | --- |
| decreased significantly | decreased significantly | CCN(CC)c1ccc(/N=N\c2cc(S(=O)(=O)O)cc3cc(S(=O)(=O)O)cc(O)c23)c(O)c1 [GIND-28] | no significant effect | block; also recorded: abolish | did not cause significant cytotoxicity | no significant effect | block; also recorded: abolish | none of these compounds altered significantly | none of these compounds altered significantly | – | – | – | – | – | – | – | – | – | – | – |
| – | – | CCCCN1C(=O)/C(=C/C=C2/Oc3ccccc3N2CCCCS(=O)(=O)[O-])N(CC)C1=S.[K+] [GIND-105] | no significant effect | – | did not cause significant cytotoxicity | no significant effect | – | – | – | 57 | 43 | 45 | 55 | 28% and 21% | 72% and 79% | 30 | 70 | no significant toxicity | water-soluble | no effect |
| decreased significantly | decreased significantly | Cc1cc(Cl)cc2sc(-c3sc4cc(Cl)cc(C)c4c3OS(=O)(=O)O)c(OS(=O)(=O)O)c12 [GIND-111] | – | – | did not cause significant cytotoxicity | – | – | none of these compounds altered significantly | none of these compounds altered significantly | – | – | – | – | – | – | – | – | – | – | – |
